Assay results: PMC3081638 (The Journal of neuroscience : the official journal of the …, 2011)

How the values were obtained:
nicotinic α4β2 receptor = nicotinic α4β2 receptor (Homo sapiens, UniProt P43681); settings: ref Paradiso et al., 2001; cited from earlier work
[1] = target: nicotinic α4β2 receptor, α4 & β2 1:8 (Homo sapiens, UniProt P17787+P43681); experiment: Agonist activation, two-electrode voltage clamp of Xenopus oocytes; assay type: cell-based; settings: response to 1 μM 5I A85380 normalized to the response to 1 mM ACh
[2] = target: α/β concatemer expressed alone (Homo sapiens, UniProt P17787+P43681); experiment: as above; assay type: cell-based; settings: response to 1 μM 5I A85380 normalized to the response to 1 mM ACh
(α4)2(β3)3 = (α4)2(β3)3 receptor; ref Zwart et al., 2006; cited from earlier work
β/α & β2 = β/α & β2 (Homo sapiens, UniProt P17787+P43681); experiment: Agonist activation, two-electrode voltage clamp of Xenopus oocytes; assay type: cell-based
α/β & α4 = α/β & α4 (Homo sapiens, UniProt P17787+P43681); experiment: as above; assay type: cell-based; settings: response to 1 μM 5I A85380 normalized to the response to 1 mM ACh
α/β & β2 = α/β & β2 (Homo sapiens, UniProt P17787+P43681); experiment: as above; assay type: cell-based
β/α&β2F119Q = β/α&β2F119Q (Homo sapiens, UniProt P17787+P43681, F144Q); experiment: as above; assay type: cell-based
α/β&β2F119Q = α/β&β2F119Q (Homo sapiens, UniProt P17787+P43681, F144Q); experiment: as above; assay type: cell-based
[3] = target: β/α concatemer expressed alone (Homo sapiens, UniProt P17787+P43681); experiment: as above; assay type: cell-based; settings: response to 1 μM 5I A85380 normalized to the response to 1 mM ACh
β/α & α4 = β/α & α4 (Homo sapiens, UniProt P17787+P43681); experiment: as above; assay type: cell-based; settings: response to 1 μM 5I A85380 normalized to the response to 1 mM ACh
[4] = target: nicotinic α4β2 receptor, α4 & β2 8:1 (Homo sapiens, UniProt P17787+P43681); experiment: as above; assay type: cell-based; settings: response to 1 μM 5I A85380 normalized to the response to 1 mM ACh
αWLAAC with α/β = αWLAAC with α/β (Homo sapiens, UniProt P43681); assay type: cell-based; settings: 10 μM, Figure 6
α/β&α-M3-β = assay type: cell-based, human; settings: α-M3-β chimera with the α/β concatemer; 10 μM; Figure 6
β/αWLAAC&β2 = β/αWLAAC&β2 (Homo sapiens, UniProt P17787+P43681); assay type: cell-based; settings: β/αWLAAC concatemer with free β2; 10 μM; Figure 6
α/β&β-M3-α = α/β&β-M3-α (Homo sapiens, UniProt P17787+P43681, A332P/K336R/P333T/T327R/V337R); assay type: cell-based; settings: β-M3-α chimera (α4 sequence transferred to β2); 10 μM; Figure 6
[5] = tested on: nicotinic α4β2 receptor, pooled combinations of constructs; experiment: Steroid potentiation, values pooled over combinations of constructs; assay type: cell-based, human; settings: for mean potentiation, single copy of WLAGMI: 10 μM 17β-estradiol

CC12CCC3c4ccc(O)cc4CCC3C1CCC2O (single isomer, unassigned) [enantiomer of 17β-estradiol]
potentiation of the α4β2 receptor (in words) (nicotinic α4β2 receptor): does not potentiate

Ic1cncc(OC[C@@H]2CCN2)c1 [5I A85380, 5-iodo-3-(2(S)-azetidinylmethoxy) pyridine]
5I A85380 response [1]: 1.44
5I A85380 response [2]: 0.16
maximal response to 5I A85380 compared with ACh ((α4)2(β3)3): greater than the maximal response to ACh
EC50 (β/α & β2): 0.029 ± 0.012 µM
5I A85380 response (β/α & β2; β/α & β2, response to 1 μM 5I A85380 normalized to the response to 1 mM ACh): 1.59
5I A85380 maximal response (β/α & β2; β/α concatemer with β2, normalized to the response to 1 mM ACh): 1.44 ± 0.10 fold
5I A85380 response (α/β & α4): 0.14
EC50 (α/β & β2): 0.008 ± 0.001 µM
5I A85380 response (α/β & β2; α/β & β2, response to 1 μM 5I A85380 normalized to the response to 1 mM ACh): 1.84
5I A85380 maximal response (α/β & β2; α/β concatemer with wild-type β2, normalized to the response to 1 mM ACh): 1.44 ± 0.07 fold
EC50 (β/α&β2F119Q): 0.016 ± 0.001 µM
5I A85380 maximal response (β/α&β2F119Q; β/α concatemer with β2F119Q, normalized to the response to 1 mM ACh): 1.29 ± 0.04 fold
EC50 (α/β&β2F119Q): 0.127 ± 0.014 µM
5I A85380 maximal response (α/β&β2F119Q; α/β concatemer with β2F119Q, normalized to the response to 1 mM ACh): 1.13 ± 0.11 fold
5I A85380 response [3]: 0.44
5I A85380 response (β/α & α4): 0.17
5I A85380 response [4]: 0.19

C[C@]12CC[C@@H]3c4ccc(O)cc4CC[C@H]3[C@@H]1CC[C@@H]2O [17β-estradiol]
potentiation by 17β-estradiol (in words) (αWLAAC with α/β): removes potentiation
potentiation by 17β-estradiol (in words) (α/β&α-M3-β): removes potentiation
potentiation by 17β-estradiol (in words) (β/αWLAAC&β2): but not when it is expressed with free β2
potentiation by 17β-estradiol (in words) (α/β&β-M3-α): confers potentiation
average potentiation by 10 μM 17β-estradiol ([5]; 0 WLAGMI domains, 10 combinations tested): 0.97 ± 0.02
average potentiation by 10 μM 17β-estradiol ([5]; 1 WLAGMI domain, 10 combinations): 2.2 ± 0.2
average potentiation by 10 μM 17β-estradiol ([5]; 2 WLAGMI domains, 5 combinations): 2.4 ± 0.4
average potentiation by 10 μM 17β-estradiol ([5]; 3 WLAGMI domains, 4 combinations): 3.3 ± 0.2
average potentiation by 10 μM 17β-estradiol ([5]; 5 WLAGMI domains, 3 combinations): 3.7 ± 0.3
mean potentiation by 17β-estradiol ([5]; 5 cases with no untethered AGMI and 2 or 3 critical tryptophans): 0.94 ± 0.04
mean potentiation, single copy of WLAGMI ([5]; WLAGMI on α4 N-terminal constructs, N=2 combinations): 1.6 ± 0.1 fold
mean potentiation, single copy of WLAGMI ([5]; WLAGMI on β2 N-terminal constructs, N=8 combinations): 2.3 ± 0.3 fold
mean potentiation, single copy of WLAGMI ([5]; domain on the structural subunit, 4 combinations): 2.4 ± 0.5 fold
